Reference: patent publication US12162872B2, “Cycloalkylurea derivative” (Sumitomo Pharma Co., Ltd., priority 2019, dated 2024)

Target: T1, Human orexin receptor type 2 (Homo sapiens, UniProt O43614)
T1 construct: expressed in transfected cells; host or cells: CHO cells (transient expression)
T1 sequence (O43614 1-444): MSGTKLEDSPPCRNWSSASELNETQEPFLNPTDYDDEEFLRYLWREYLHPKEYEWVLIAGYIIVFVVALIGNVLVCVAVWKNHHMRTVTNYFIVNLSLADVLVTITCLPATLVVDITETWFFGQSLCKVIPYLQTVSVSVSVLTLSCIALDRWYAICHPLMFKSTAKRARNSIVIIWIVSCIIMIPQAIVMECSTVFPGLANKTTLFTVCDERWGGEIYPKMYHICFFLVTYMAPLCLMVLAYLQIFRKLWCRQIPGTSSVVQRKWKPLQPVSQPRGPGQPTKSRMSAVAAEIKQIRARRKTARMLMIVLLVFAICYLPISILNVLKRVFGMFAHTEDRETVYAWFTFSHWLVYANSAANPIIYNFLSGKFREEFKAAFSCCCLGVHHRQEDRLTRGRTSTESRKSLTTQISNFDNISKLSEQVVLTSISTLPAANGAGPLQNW
Test: Test 2: Evaluation of agonist activity for orexin receptor type 2 (aequorin luminescence, intracellular calcium mobilization in CHO cells)
Assay type: cell-based
Details: relative percentage of luminescence for the luminescence (100%) of Orexin A (100 pM); CHO cells transiently expressing human orexin receptor type 2 and apoaequorin; Orexin A Lot. 671009
Experimental: Test 2: Evaluation of Agonist Activity for Orexin Receptor Type 2
Human orexin receptor type 2 and apoaequorin were transiently expressed in CHO cells, and the agonist activity was evaluated based on intracellular calcium mobilization with ligand stimulation. The CHO cells transiently-expressed human orexin receptor type 2 and apoaequorin were seeded on a 384-well plate by 2,000 cells/well, and then incubated for 16-22 hours. After the plate was returned to room temperature, Coelenterazine hcp (final concentration: 1 μM) was added to the plate, and the plate was allowed to stand at room temperature for 2 hours. And then, Orexin A (PEPTIDE INSTITUTE, INC., Lot. 671009) or each test compound was added to the plate, and the luminescence of the cells was measured with FDSS7000 (Hamamatsu Photonics K.K.), wherein Orexin A and each test compound were dissolved in DMSO (final concentration: 0.1%), and diluted with a buffer (Hanks, 20 mM HEPES, 0.1% BSA). The agonist activity of each test compound for orexin receptor type 2 was calculated as relative percentage of luminescence for the luminescence (100%) of Orexin A (100 pM).

Question: `CC(C)N1CCC2(CCN([C@H]3CCCC(F)(F)[C@@H]3NC(=O)N3CCC(C)(c4noc([C@@H]5C[C@@H]5F)n4)CC3)CC2)C1` [Example 127, N-{(1R,6S)-2,2-difluoro-6-[2-(propan-2-yl)-2,8-diazaspiro[4.5]decan-8-yl]cyclohexyl}-4-{5-[(1S,2S)-2-fluorocyclopropyl]-1,2,4-oxadiazol-3-yl}-4-methylpiperidine-1-carboxamide] was tested. Which “agonist activity (%)” value did it give?
Answer: 367%

Question: How did the “agonist activity (%)” value turn out when `CC(C)N1C[C@@H]2[C@H](C1)[C@H]2O[C@H]1CCCC(F)(F)[C@@H]1NC(=O)N1CCC(C)(c2noc([C@@H]3C[C@@H]3F)n2)CC1` [Example 106, N-[(1R,6S)-2,2-difluoro-6-{[(1R,5S,6S)-3-(propan-2-yl)-3-azabicyclo[3.1.0]hexan-6-yl]oxy}cyclohexyl]-4-{5-[(1S,2S)-2-fluorocyclopropyl]-1,2,4-oxadiazol-3-yl}-4-methylpiperidine-1-carboxamide] was run?
Answer: 220%

Question: How did the “agonist activity (%)” value turn out when `CC1(c2noc([C@@H]3C[C@@H]3F)n2)CCN(C(=O)N[C@@H]2[C@@H](O[C@H]3CCN(CC4(C(F)(F)F)CC4)C3)CCCC2(F)F)CC1` [Example 135, N-[(1R,6S)-2,2-difluoro-6-{[(3S)-1-{[1-(trifluoromethyl)cyclopropyl]methyl}pyrrolidin-3-yl]oxy}cyclohexyl]-4-{5-[(1S,2S)-2-fluorocyclopropyl]-1,2,4-oxadiazol-3-yl}-4-methylpiperidine-1-carboxamide] was run?
Answer: 396%

Question: For `CC(C)c1nsc(O[C@H]2CCCC(F)(F)[C@@H]2NC(=O)N2CCC(C)(c3noc([C@@H]4C[C@@H]4F)n3)CC2)n1` [Example 87, N-[(1R,6S)-2,2-difluoro-6-{[3-(propan-2-yl)-1,2,4-thiadiazol-5-yl]oxy}cyclohexyl]-4-{5-[(1S,2S)-2-fluorocyclopropyl]-1,2,4-oxadiazol-3-yl}-4-methylpiperidine-1-carboxamide], which “agonist activity (%)” value is on record?
Answer: 226%

Question: Which “agonist activity (%)” value does the source give for `CCC1(c2noc([C@@H]3C[C@@H]3F)n2)CCN(C(=O)N[C@@H]2[C@@H](O[C@H]3CCN(C(C)C)C3)CCCC2(F)F)CC1` [Example 103, N-[(1R,6S)-2,2-difluoro-6-{[(3S)-1-(propan-2-yl)pyrrolidin-3-yl]oxy}cyclohexyl]-4-ethyl-4-{5-[(1S,2S)-2-fluorocyclopropyl]-1,2,4-oxadiazol-3-yl}piperidine-1-carboxamide] here?
Answer: 369%

Question: `CC(C)N(C)[C@@H]1CCN([C@H]2CCCC(F)(F)[C@@H]2NC(=O)N2CCC(C)(c3noc([C@@H]4C[C@@H]4F)n3)CC2)C1` [Example 112, N-[(1R,6S)-2,2-difluoro-6-{(3R)-3-[methyl(propan-2-yl)amino]pyrrolidin-1-yl}cyclohexyl]-4-{5-[(1S,2S)-2-fluorocyclopropyl]-1,2,4-oxadiazol-3-yl}-4-methylpiperidine-1-carboxamide] was tested. Which “agonist activity (%)” value did it give?
Answer: 376%

Question: For `CN(CC1CC1)C1CN([C@H]2CCCC(F)(F)[C@@H]2NC(=O)N2CCC(C)(c3noc([C@@H]4C[C@@H]4F)n3)CC2)C1` [Example 149, N-[(1R,6S)-6-{3-[(cyclopropylmethyl)(methyl)amino]azetidin-1-yl}-2,2-difluorocyclohexyl]-4-{5-[(1S,2S)-2-fluorocyclopropyl]-1,2,4-oxadiazol-3-yl}-4-methylpiperidine-1-carboxamide], which “agonist activity (%)” value is on record?
Answer: 419%

Question: For `CC(C)c1nccc(O[C@H]2CCCC(F)(F)[C@@H]2NC(=O)N2CCC(C)(c3noc([C@@H]4C[C@@H]4F)n3)CC2)n1` [Example 92, N-[(1R,6S)-2,2-difluoro-6-{[2-(propan-2-yl)pyrimidin-4-yl]oxy}cyclohexyl]-4-{5-[(1S,2S)-2-fluorocyclopropyl]-1,2,4-oxadiazol-3-yl}-4-methylpiperidine-1-carboxamide], which “agonist activity (%)” value is on record?
Answer: 16%

Question: Which “agonist activity (%)” value does the source give for `CC(C)N1CCN([C@H]2CCCC(F)(F)[C@@H]2N(C)C(=O)N2CCC(C)(c3noc([C@@H]4C[C@@H]4F)n3)CC2)CC1` [Example 146, N-{(1R,6S)-2,2-difluoro-6-[4-(propan-2-yl)piperazin-1-yl]cyclohexyl}-4-{5-[(1S,2S)-2-fluorocyclopropyl]-1,2,4-oxadiazol-3-yl}-N,4-dimethylpiperidine-1-carboxamide] here?
Answer: 23%

Question: With `CC(C)n1cc(O[C@H]2CCCC(F)(F)[C@@H]2NC(=O)N2CCC(C)(c3noc([C@@H]4C[C@@H]4F)n3)CC2)cn1` [Example 88, N-[(1R,6S)-2,2-difluoro-6-{[1-(propan-2-yl)-1H-pyrazol-4-yl]oxy}cyclohexyl]-4-{5-[(1S,2S)-2-fluorocyclopropyl]-1,2,4-oxadiazol-3-yl}-4-methylpiperidine-1-carboxamide] as the compound, how does the “agonist activity (%)” value read?
Answer: 201%

Question: For `CC(C)n1cc(O[C@H]2CCCC(F)(F)[C@@H]2NC(=O)N2CCC(C)(c3noc(C4CC4)n3)CC2)cn1` [Example 90, 4-(5-cyclopropyl-1,2,4-oxadiazol-3-yl)-N-[(1R,6S)-2,2-difluoro-6-{[1-(propan-2-yl)-1H-pyrazol-4-yl]oxy}cyclohexyl]-4-methylpiperidine-1-carboxamide], which “agonist activity (%)” value is on record?
Answer: 112%

Question: `CC1(c2noc([C@@H]3C[C@@H]3F)n2)CCN(C(=O)N[C@@H]2[C@@H](O[C@H]3CCN(CC4CC4)C3)CCCC2(F)F)CC1` [Example 118, N-[(1R,6S)-6-{[(3S)-1-(cyclopropylmethyl)pyrrolidin-3-yl]oxy}-2,2-difluorocyclohexyl]-4-{5-[(1S,2S)-2-fluorocyclopropyl]-1,2,4-oxadiazol-3-yl}-4-methylpiperidine-1-carboxamide] was tested. Which “agonist activity (%)” value did it give?
Answer: 524%

Question: Which “agonist activity (%)” value does the source give for `CC(C)N1CC[C@H](O[C@H]2CCCC(F)(F)[C@@H]2NC(=O)N2CCC(C)(c3noc(C4CCC4)n3)CC2)C1` [Example 102, 4-(5-cyclobutyl-1,2,4-oxadiazol-3-yl)-N-[(1R,6S)-2,2-difluoro-6-{[(3S)-1-(propan-2-yl)pyrrolidin-3-yl]oxy}cyclohexyl]-4-methylpiperidine-1-carboxamide] here?
Answer: 374%

Question: With `CC(C)N1CCN([C@H]2CCCC(F)(F)[C@@H]2NC(=O)N2CCC(C)(c3noc(C4CCC4)n3)CC2)CC1` [Example 97, 4-(5-cyclobutyl-1,2,4-oxadiazol-3-yl)-N-{(1R,6S)-2,2-difluoro-6-[4-(propan-2-yl)piperazin-1-yl]cyclohexyl}-4-methylpiperidine-1-carboxamide] as the compound, how does the “agonist activity (%)” value read?
Answer: 486%

Question: How did the “agonist activity (%)” value turn out when `CC1(CN2CC[C@H](O[C@H]3CCCC(F)(F)[C@@H]3NC(=O)N3CCC(C)(c4noc([C@@H]5C[C@@H]5F)n4)CC3)C2)CC1` [Example 121, N-[(1R,6S)-2,2-difluoro-6-({(3S)-1-[(1-methylcyclopropyl)methyl]pyrrolidin-3-yl}oxy)cyclohexyl]-4-{5-[(1S,2S)-2-fluorocyclopropyl]-1,2,4-oxadiazol-3-yl}-4-methylpiperidine-1-carboxamide] was run?
Answer: 379%

Question: How did the “agonist activity (%)” value turn out when `CN(C1CCC1)C1CCN([C@H]2CCCC(F)(F)[C@@H]2NC(=O)N2CCC(C)(c3noc([C@@H]4C[C@@H]4F)n3)CC2)CC1` [Example 159, N-[(1R,6S)-6-{4-[cyclobutyl(methyl)amino]piperidin-1-yl}-2,2-difluorocyclohexyl]-4-{5-[(1S,2S)-2-fluorocyclopropyl]-1,2,4-oxadiazol-3-yl}-4-methylpiperidine-1-carboxamide] was run?
Answer: 392%

Question: With `CC(C)N1CCN([C@H]2CCCC(F)(F)[C@@H]2NC(=O)N2CCC(C)(c3noc([C@@H]4C[C@@H]4F)n3)CC2)[C@@H](C)C1` [Example 110, N-{(1R,6S)-2,2-difluoro-6-[(2S)-2-methyl-4-(propan-2-yl)piperazin-1-yl]cyclohexyl}-4-{5-[(1S,2S)-2-fluorocyclopropyl]-1,2,4-oxadiazol-3-yl}-4-methylpiperidine-1-carboxamide] as the compound, how does the “agonist activity (%)” value read?
Answer: 380%

Question: How did the “agonist activity (%)” value turn out when `CC(C)N(C)[C@H]1CCN([C@H]2CCCC(F)(F)[C@@H]2NC(=O)N2CCC(C)(c3noc(C4CC4)n3)CC2)C1` [Example 99, 4-(5-cyclopropyl-1,2,4-oxadiazol-3-yl)-N-[(1R,6S)-2,2-difluoro-6-{(3S)-3-[methyl(propan-2-yl)amino]pyrrolidin-1-yl}cyclohexyl]-4-methylpiperidine-1-carboxamide] was run?
Answer: 499%

Question: With `CC(C)Cc1cn([C@H]2CCCC(F)(F)[C@@H]2NC(=O)N2CCC(C)(c3noc([C@@H]4C[C@@H]4F)n3)CC2)nn1` [Example 94, N-{(1R,6S)-2,2-difluoro-6-[4-(2-methylpropyl)-1H-1,2,3-triazol-1-yl]cyclohexyl}-4-{5-[(1S,2S)-2-fluorocyclopropyl]-1,2,4-oxadiazol-3-yl}-4-methylpiperidine-1-carboxamide] as the compound, how does the “agonist activity (%)” value read?
Answer: 382%
